Experimental findings from US20260240847A1, “COMPOUNDS WITH ANTI-TUMOR ACTIVITY AGAINST CANCER CELLS BEARING TYROSINE KINASE INHIBITOR RESISTANT EGFR MUTATIONS” (BOARD OF REGENTS, THE UNIVERSITY OF TEXAS SYSTEM, priority 2019, published 2026) are described below.

Structures are written as SMILES.

What all share (test): Ba/F3 cell viability, Cell Titer Glo
One assay has as its target EGFR G719A L861Q (Homo sapiens, UniProt P00533, G719A/L861Q). Particulars: read-out: IC50 Values; Ba/F3 cells expressing EGFR G719A L861Q, 72 hours.
The target of a further assay is EGFR Ex19del T790M C797S (Homo sapiens, UniProt P00533, C797S/DEL746-750/T790M). The note with it: read-out: IC50 Values; Ba/F3 cells expressing EGFR Ex19del T790M C797S, 72 hours.
The next assay deals with EGFR Ex19delT790M (Homo sapiens, UniProt P00533, DEL746-750/T790M). Particulars: read-out: IC50 Values; Ba/F3 cells expressing EGFR Ex19delT790M, 72 hours.
A further assay deals with EGFR E709AG719S (Homo sapiens, UniProt P00533, E709A/G719S). The note with it: read-out: IC50 Values; Ba/F3 cells expressing EGFR E709AG719S, 72 hours.
Another assay has as its target EGFR L858R G724S (Homo sapiens, UniProt P00533, G724S/L858R). The note with it: read-out: IC50 Values; Ba/F3 cells expressing EGFR L858R G724S, 72 hours.
A further assay deals with EGFR E709K (Homo sapiens, UniProt P00533, E709K). The note with it: read-out: IC50 Values; Ba/F3 cells expressing EGFR E709K, 72 hours.
The target of another assay is EGFR L858R T790M L718V (Homo sapiens, UniProt P00533, L718V/L858R/T790M). Particulars: read-out: IC50 Values; Ba/F3 cells expressing EGFR L858R T790M L718V, 72 hours.
Another assay addresses EGFR L833F (Homo sapiens, UniProt P00533, L833F). Particulars: read-out: IC50 Values; Ba/F3 cells expressing EGFR L833F, 72 hours.
A further assay has as its target EGFR G719S (Homo sapiens, UniProt P00533, G719S). Particulars: read-out: IC50 Values; Ba/F3 cells expressing EGFR G719S, 72 hours.
Another assay addresses EGFR L718Q T790M (Homo sapiens, UniProt P00533, L718Q/T790M). The note with it: read-out: IC50 Values; Ba/F3 cells expressing EGFR L718Q T790M, 72 hours.
Another assay addresses EGFR L861Q (Homo sapiens, UniProt P00533, L861Q). Particulars: read-out: IC50 Values; Ba/F3 cells expressing EGFR L861Q, 72 hours.
In assay [1] the target is EGFR L747 K754del insATSPE (Homo sapiens, UniProt P00533, DEL747-749/K754E). Particulars: read-out: IC50 Values; Ba/F3 cells expressing EGFR L747 K754del insATSPE, 72 hours.
For the next assay, the target named is EGFR Ex19del/C797S (Homo sapiens, UniProt P00533, C797S/DEL746-750). Particulars: read-out: IC50 Values; Ba/F3 cells expressing EGFR Ex19del/C797S, 72 hours.
The next assay deals with EGFR L718V (Homo sapiens, UniProt P00533, L718V). Particulars: read-out: IC50 Values; Ba/F3 cells expressing EGFR L718V, 72 hours.
The next assay deals with EGFR L861R (Homo sapiens, UniProt P00533, L861R). Particulars: read-out: IC50 Values; Ba/F3 cells expressing EGFR L861R, 72 hours.
The next assay deals with EGFR A767insASV (Homo sapiens, UniProt P00533, DUP767-769). The note with it: read-out: IC50 Values; Ba/F3 cells expressing EGFR A767insASV, 72 hours.
Another assay deals with EGFR G719A/R776C (Homo sapiens, UniProt P00533, G719A/R776C). Particulars: read-out: IC50 Values; Ba/F3 cells expressing EGFR G719A/R776C, 72 hours.
A further assay has as its target EGFR L833V (Homo sapiens, UniProt P00533, L833V). Particulars: read-out: IC50 Values; Ba/F3 cells expressing EGFR L833V, 72 hours.
The next assay addresses EGFR N771dupN G724S (Homo sapiens, UniProt P00533, DUP771-771/G724S). Particulars: read-out: IC50 Values; Ba/F3 cells expressing EGFR N771dupN G724S, 72 hours.
For another assay, the target named is EGFR Ex19del G796S (Homo sapiens, UniProt P00533, DEL746-750/G796S). The note with it: read-out: IC50 Values; Ba/F3 cells expressing EGFR Ex19del G796S, 72 hours.

Turning to `C=CC(=O)N1CC[C@@H](Oc2nc(Nc3ccc(N4CCC(N5CCN(C)CC5)CC4)cc3)c(C(N)=O)nc2CC)C1` [Naquotinib], the concentration for half-maximal inhibition (IC50) at EGFR G719A L861Q worked out at 4.22 nM; on EGFR Ex19del T790M C797S it was 1970 nM; at EGFR Ex19delT790M it was 1.41 nM; at EGFR E709AG719S, 48.1 nM; on EGFR L858R G724S it was 108 nM; at EGFR E709K, 359 nM. Moreover, the 50% inhibitory concentration (IC50) was 4.03 nM at EGFR L858R T790M L718V; 411 nM on EGFR L833F; 36.7 nM at EGFR G719S; 212 nM on EGFR L718Q T790M; 77.4 nM at EGFR L861Q; 0.58 nM in assay [1]. The IC50 at EGFR Ex19del/C797S stood at 1540 nM; at EGFR L718V, 78.4 nM; on EGFR L861R, 12.2 nM; on EGFR A767insASV it was 217 nM; on EGFR G719A/R776C, 39 nM; on EGFR L833V, 402 nM. For the same compound, the IC50 on EGFR N771dupN G724S was 375 nM; at EGFR Ex19del G796S, 53.2 nM.

As a reminder, the IC50 is the concentration needed to halve the response being measured.
